Peptide text beside a SMILES is read from it.
Assays:
[1] = Metabolic stability in mouse brain homogenate; assay type: in vitro ADME; conditions: male, Swiss, pH 7.4, mouse brain homogenate, 37° C., mean±standard deviation, read-out: T½ Brain
Protocol: (§1) Plasma and brain tissue samples were obtained from male Swiss mice (Morini, Reggio Emilia, Italy, 25-30 g). The animal, sacrificed by ether anesthesia, was perfused with physiological heparin solution injected through a needle placed in the left ventricle. Blood was then withdrawn and was centrifuged at 14000×g for 2 minutes at room temperature. After separation from the pellet, the plasma was aliquoted and stocked at −80° C. After blood withdrawal, the animal was perfused further with a physiological solution for 2 minutes before brain removal. The brain tissue was homogenized in 5 vol. (w/v) of Tris/HCl (50 mM, pH 7.4, 0° C.) with a ultra-Turrax (Janke Kunkel, Staufen, FRG) 3 times for 15 seconds each. The supernatant obtained by centrifugation (3000×g for 15 min at 4° C.) was decanted and then stocked at −80° C.
(§2) The protein content of the preparations, determined by the Bradford method, as described in Anal. Biochem., 72, 248-254, 1976, was approximately 8 μg/μl for the brain homogenate and 17 μg/μl for the plasma
(§3) An aliquot of 100 μl solution of each peptide (3 mg/500 μl Tris) was incubated (at a final concentration of […]) with brain homogenate or plasma (450 μl) in a total volume of 1 ml, containing Tris/HCl 50 mM pH 7.4 buffer. Incubation of the aliquots was carried out at 37° C. for various periods up to 240 min. At different incubation times, an aliquot of the solution (100 μl) was removed and the degradation was blocked by addition of 4.5% TFA solution (200 μl). After centrifugation (3000 rpm for 15 minutes) an aliquot (100 μl) of supernatant was injected into RP-HPLC. HPLC analysis was performed in a Kromasil 100-5C18 column (4.6×250 mm) using a Beckman System Gold chromatography system equipped with a variable wave length UV detector.
(§4) The experimental conditions for elution included a gradient analysis with water (solvent A) and acetonitrile (solvent B), both containing 0.1% TFA, at a flow rate of 0.7 ml/min. The following protocol was used for gradient analysis, selected on the basis of the physico-chemical characteristics of the analyte: linear gradient from 5% to 40% B in 20 minutes; linear gradient from 40% to 60% B in 5 minutes; linear gradient from 60% to 5% B in 5 minutes. The eluate was monitored at 220 nm. The half life (T1/2) was obtained by linear regression with the least square method, diagramming the peak areas of each derivative as a function of the incubation times, using at least five points for each analysis.

mice [2] = assay: Spontaneous locomotor activity in mice; assay type: in vivo, mouse; conditions: for Effect on spontaneous locomotor activity: i.c.v., N/OFQ 10 nmol, UFP-112 0.1 nmol
Protocol: (§5) Control animals received one i.c.v. injection of saline (2 μl/mouse). Each point represents the mean±s.e.m. of at least 4 experiments.
3) assay for measurement of spontaneous locomotor activity, as described by Rizzi et al., (Naunyn Schmiedebergs Arch Pharmacol 363, 161-165, 2001.

mouse vas deferens = assay: Inhibition of the twitch induced by electrical stimulation of mouse vas deferens; assay type: cell-based; conditions: for Inhibition of the twitch induced by electric stimulation, Agonist Emax / Inhibition of the twitch induced by electric stimulation, Agonist pEC50 / Inhibition of the twitch induced by electric stimulation, Antagonist pA2: Table 1; for Inhibition of the twitch induced by electric stimulation, Antagonist pA2: against N/OFQ; for Functional behaviour in mouse vas deferens: compared with N/OFQ maximal effect
Protocol: The compounds were tested in vitro on Hamster oocytes membranes expressing the human recombinant NOP receptor (CHOhNoP) (receptor binding experiments and GTP?S binding stimulation experiments) and on the mouse vas deferens after electrical stimulation.

[3] = Metabolic stability in mouse plasma; assay type: in vitro ADME; conditions: for half-life at 6 μg/μl: male, Swiss, mouse, plasma, pH 7.4, mouse plasma; for Plasma T½ compared to N/OFQ: mouse plasma
Protocol: as §1, §2, §3, §4

mice [4] = assay: Food intake in fed mice; assay type: in vivo, mouse; conditions: for Effect on food intake: equi-effective doses
Source text: 2) measurement of food intake in fed animals, as described by Rizzi et al. (National Congress of the Italian Society of Neuroscience and joint Italian-Swedish Neuroscience Meetings, Ischia (Napoli) 1-4 Oct. 2005);

[5] = target: T1, human recombinant opioid receptor delta (DOP) (Homo sapiens, UniProt P41143); assay: Receptor binding on CHO membranes, [3H]-Diprenorphine
T1 construct: expressed in transfected cells; host or cells: CHO cells, membranes
T1 sequence (P41143 whole entry): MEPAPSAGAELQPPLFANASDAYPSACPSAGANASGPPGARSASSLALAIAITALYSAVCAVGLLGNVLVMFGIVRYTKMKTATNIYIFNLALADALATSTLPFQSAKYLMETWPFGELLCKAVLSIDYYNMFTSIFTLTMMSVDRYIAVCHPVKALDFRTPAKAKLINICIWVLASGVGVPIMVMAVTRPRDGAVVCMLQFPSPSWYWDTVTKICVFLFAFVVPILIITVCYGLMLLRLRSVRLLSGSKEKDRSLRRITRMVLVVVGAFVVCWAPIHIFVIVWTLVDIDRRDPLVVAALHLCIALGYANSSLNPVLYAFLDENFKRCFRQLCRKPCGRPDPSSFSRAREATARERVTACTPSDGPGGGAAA

[6] = target: T2, human recombinant opioid receptor mu (MOP) (Homo sapiens, UniProt P35372); assay: as above
T2 construct: expressed in transfected cells; host or cells: CHO cells, membranes
T2 sequence (P35372 whole entry): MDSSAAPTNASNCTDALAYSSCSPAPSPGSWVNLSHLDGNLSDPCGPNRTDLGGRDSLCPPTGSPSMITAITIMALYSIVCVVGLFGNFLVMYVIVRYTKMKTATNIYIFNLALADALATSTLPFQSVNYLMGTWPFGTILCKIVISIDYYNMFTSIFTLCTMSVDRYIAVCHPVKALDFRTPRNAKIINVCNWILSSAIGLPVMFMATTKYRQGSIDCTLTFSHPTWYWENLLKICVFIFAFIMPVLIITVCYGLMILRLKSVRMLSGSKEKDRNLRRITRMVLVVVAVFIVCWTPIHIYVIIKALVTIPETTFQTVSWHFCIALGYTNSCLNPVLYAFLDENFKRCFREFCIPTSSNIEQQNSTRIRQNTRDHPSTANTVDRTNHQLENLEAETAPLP

[7] = target: T3, human recombinant NOP receptor (Homo sapiens, UniProt P41146); assay: Stimulation of GTP?S binding on CHOhNOP membranes; assay type: biochemical; conditions: for Stimulation upon binding GTP?S, Agonist pEC50: Table 1, membrane of CHOhNOP cells; for Functional behaviour in GTP?S binding: compared with N/OFQ maximal effect; for Emax: read-out: Stimulation upon binding GTP?S, Agonist Emax
T3 construct: expressed in transfected cells; host or cells: CHO cells (CHOhNOP), membranes
T3 sequence (P41146 whole entry): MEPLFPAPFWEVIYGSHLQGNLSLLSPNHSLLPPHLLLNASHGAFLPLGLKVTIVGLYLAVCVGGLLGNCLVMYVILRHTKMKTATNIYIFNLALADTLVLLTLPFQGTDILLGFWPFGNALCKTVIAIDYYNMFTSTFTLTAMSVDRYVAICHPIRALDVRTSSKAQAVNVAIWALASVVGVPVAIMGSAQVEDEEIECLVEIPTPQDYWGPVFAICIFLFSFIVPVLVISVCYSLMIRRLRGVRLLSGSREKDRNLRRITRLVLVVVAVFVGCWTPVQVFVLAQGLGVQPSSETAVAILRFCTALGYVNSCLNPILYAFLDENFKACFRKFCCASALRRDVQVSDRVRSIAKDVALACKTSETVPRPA

[8] = test system: vas deferens of knockout mice for the NOP receptor (NOP−/−); assay: Electrically stimulated vas deferens from NOP receptor knockout mice; assay type: cell-based, mouse
[9] = target: T4, human recombinant opioid receptor kappa (KOP) (Homo sapiens, UniProt P41145); assay: Receptor binding on CHO membranes, [3H]-Diprenorphine; conditions: Table 3, CHO cells
T4 construct: expressed in transfected cells; host or cells: CHO cells, membranes
T4 sequence (P41145 whole entry): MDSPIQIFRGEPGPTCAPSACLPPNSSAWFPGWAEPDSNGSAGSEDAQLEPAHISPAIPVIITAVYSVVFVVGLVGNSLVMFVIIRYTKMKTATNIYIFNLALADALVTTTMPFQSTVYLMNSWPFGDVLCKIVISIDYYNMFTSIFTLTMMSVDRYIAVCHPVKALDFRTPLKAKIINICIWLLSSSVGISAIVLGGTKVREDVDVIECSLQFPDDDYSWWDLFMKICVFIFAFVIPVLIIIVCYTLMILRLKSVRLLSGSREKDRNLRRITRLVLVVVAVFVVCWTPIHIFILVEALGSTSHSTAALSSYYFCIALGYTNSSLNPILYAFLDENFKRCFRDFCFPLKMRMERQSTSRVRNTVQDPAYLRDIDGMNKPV

mice [10] = assay: Tail withdrawal assay in mice; assay type: in vivo, mouse
Protocol: as §5
1) tail withdrawal assay, according to the experimental protocols described by Calò et al., (Br J Pharmacol 125, 373-378, 1998) and Rizzi et al. (Clin Pharmacol 18, 56, 2004);

[11] = target: T3, human recombinant NOP receptor; assay: Receptor binding, displacement of tritiated N/OFQ on CHOhNOP membranes
[12] = target: T5, human recombinant NOP receptors expressed in HEK293 cells (Homo sapiens, UniProt P41146); conditions: Okada et al. 2000; cited from earlier work
T5 construct: host or cells: HEK293 cells
T5 sequence (P41146 whole entry): as the sequence (P41146 whole entry) above

[13] = Table 2, wild type (NOP+/+) mice
[14] = 37° C., mean±standard deviation, read-out: T½ Plasma
[15] = Table 3, CHO cells, [3H]-Diprenorphine

Row | Molecule | half-life at 6 μg/μl [1] [h] | Effect on spontaneous locomotor activity (mice [2]) | Inhibition of the twitch induced by electric stimulation, Agonist Emax (mouse vas deferens) [%] | Inhibition of the twitch induced by electric stimulation, Agonist pEC50 (mouse vas deferens) | Emax NOP+/+ (mouse vas deferens; [13]) [%] | half-life at 6 μg/μl [3, 14] [h] | Hyperphagic effects in NOP−/− mice (mice [4]) | Effect on food intake (mice [4]; fed mice) | Stimulation upon binding GTP?S, Agonist pEC50 [7] | Functional behaviour in GTP?S binding [7] | Inhibition of the twitch induced by electric stimulation, Antagonist pA2 (mouse vas deferens) | Functional behaviour in mouse vas deferens (mouse vas deferens) | Plasma T½ compared to N/OFQ [3] | Emax [7] [%] | also measured
1 | CC(C)C[C@H](NC(=O)[C@H](CCCCN)NC(=O)[C@H](CCCNC(=N)N)NC(=O)[C@H](C)NC(=O)[C@H](CO)NC(=O)[C@H](CCCCN)NC(=O)[C@H](CCCNC(=N)N)NC(=O)[C@H](C)NC(=O)CNC(=O)[C@@H](NC(=O)[C@H](Cc1ccccc1)NC(=O)CNC(=O)CNC(=O)[C@@H](N)Cc1ccccc1)[C@@H](C)O)C(=O)N[C@@H](C)C(=O)N[C@@H](CC(N)=O)C(=O)N[C@@H](CCC(N)=O)C(=O)O [N/OFQ, reference compound] | ~0.05 | inhibited the locomotor activity | −84 ± 3 | 7.39 | 84 ± 4 | 1.07 ± 0.0167 | absent | significant increase | – | – | – | – | – | – | Time after i.c.v. injection at which locomotor effect ended (mice [2]; 10 nmol i.c.v.): 60 min; half-life at 6 μg/μl ([3]; read-out: Half life in the plasma (converted)): ~1 h
2 | C[C@H](NC(=O)[C@H](CO)NC(=O)[C@H](CCCCN)NC(=O)[C@H](CCCNC(=N)N)NC(=O)C(C)(C)NC(=O)CNC(=O)[C@@H](NC(=O)[C@H](Cc1ccccc1)NC(=O)CNC(=O)CNC(=O)CNCc1ccccc1)[C@@H](C)O)C(=O)N[C@@H](CCCNC(=N)N)C(=O)N[C@@H](CCCCN)C(=O)N[C@@H](CCCNC(=N)N)C(=O)N[C@@H](CCCCN)C(=O)N[C@@H](CC(N)=O)C(=O)N[C@@H](CCC(N)=O)C(N)=O [UFP-111, [Nphe^1,Aib^7,Arg^14,Lys^15]N/OFQ-NH2] | 0.183 ± 0.0317 | – | – | Inactive | – | 2.28 ± 0.0667 | – | – | Inactive | competitive antagonist | 7.46 | competitive antagonist | about twice as long | – | Ki [5]: > 10000 nM; Ki [6]: > 10000 nM; Kb [7]: 2.09 nM
3 | C[C@H](NC(=O)[C@H](CO)NC(=O)[C@H](CCCCN)NC(=O)[C@H](CCCNC(=N)N)NC(=O)C(C)(C)NC(=O)CNC(=O)[C@@H](NC(=O)[C@H](Cc1ccc(F)cc1)NC(=O)CNC(=O)CNC(=O)[C@@H](N)Cc1ccccc1)[C@@H](C)O)C(=O)N[C@@H](CCCNC(=N)N)C(=O)N[C@@H](CCCCN)C(=O)N[C@@H](CCCNC(=N)N)C(=O)N[C@@H](CCCCN)C(=O)N[C@@H](CC(N)=O)C(=O)N[C@@H](CCC(N)=O)C(N)=O [UFP-112, [(pF)Phe^4,Aib^7,Arg^14,Lys^15]N/OFQ-NH2] | 0.188 ± 0.0233 | inhibited the locomotor activity | −85 ± 2 | 9.48 | 93 ± 3 | 2.78 ± 0.15 | absent | significant increase | 10.55 | – | – | – | almost three-fold longer | 118 ± 9 | pKi DOP [5, 15]: 6.37; Time after which locomotor effect ended (mice [2]; 0.1 nmol i.c.v.): about 6 h; Inhibitory effect on the contraction induced by electrical stimulation in NOP−/− vas deferens [8]: disappeared; pEC50 NOP−/− ([8]; Table 2): <6; pKi MOP [6, 15]: 7.13; pKi KOP [9]: 8.36; Effect in tail withdrawal assay, i.c.v. (mice [10]; 0.001-0.1 nmol, intracerebroventricular): pronociceptive effects; Effect in tail withdrawal assay, i.t. (mice [10]; 0.001-0.1 nmol, intrathecal): antinociceptive effects; Tail withdrawal effects in NOP−/− mice (mice [10]; NOP−/− mice): absent; Duration of action in tail withdrawal test (mice [10]; equi-effective doses): > 120 min; Potency in vivo relative to N/OFQ (mice [10]; stated for each in vivo assay (tail withdrawal, food intake, locomotor activity)): about 100 fold; pEC50 NOP+/+ (mouse vas deferens; [13]): 8.94; Kinetics of action and reversibility of the effects after washing (mouse vas deferens; compared with N/OFQ, equi-effective concentrations): much slower; Increase in potency compared to the reference sequence (mouse vas deferens; mouse vas deferens): more than 100 fold; Action in the mouse vas deferens in presence of naloxone (mouse vas deferens; naloxone present): not modified; Receptor binding PKi ([11]; Table 1, membrane of CHOhNOP cells, tritiated N/OFQ): 10.55; pKi NOP ([11]; Table 3, CHO cells, [3H]N/OFQ): 10.55; Potency relative to N/OFQ in food intake (mice [4]; fed mice): 100 fold
4 | C[C@H](NC(=O)[C@H](CO)NC(=O)[C@H](CCCCN)NC(=O)[C@H](CCCNC(=N)N)NC(=O)C(C)(C)NC(=O)CNC(=O)[C@@H](NC(=O)[C@H](Cc1ccc(F)cc1)NC(=O)CNC(=O)CNC[C@@H](N)Cc1ccccc1)[C@@H](C)O)C(=O)N[C@@H](CCCNC(=N)N)C(=O)N[C@@H](CCCCN)C(=O)N[C@@H](CCCNC(=N)N)C(=O)N[C@@H](CCCCN)C(=O)N[C@@H](CC(N)=O)C(=O)N[C@@H](CCC(N)=O)C(N)=O [UFP-113, [Phe^1?(CH2—NH)Gly^2,(pF)Phe^4,Aib^7,Arg^14,Lys^15]N/OFQ-NH2] (HELM PEPTIDE1{[N[C@H](CNCC(=O)[*:2])Cc1ccccc1].G.[O=C([C@H](Cc1ccc(F)cc1)N[*:1])[*:2]].T.G.[Aib].R.K.S.A.R.K.R.K.N.Q.[am]}$$$$V2.0) | 0.205 ± 0.0133 | – | – | Variable agonist effects | – | 1.83 ± 0.167 | – | – | – | partial NOP receptor agonist | 9.28 | partial NOP receptor agonist | about twice as long | 79 ± 3 | EC50 [7]: 0.191 nM; Ki ([11]; Receptor binding PKi, Table 1, membrane of CHOhNOP cells, tritiated N/OFQ): 0.055 nM
5 | [Arg^14,Lys^15]N/OFQ | – | – | – | – | – | – | – | – | – | – | – | – | – | – | Potency relative to N/OFQ [12]: 17 fold
